Assay results as given in patent publication US20180125835A1, “Dosage and Use of an A2A Antagonist” (H. Lundbeck A/S, priority 2014, published 2018).
Like-named read-outs stand apart in the source and are kept apart here.

Legend:
A2A receptor [1] = molecular target: A2A receptor (Callithrix jacchus, UniProt A0A8I3X4X6); test: Adenosine receptor binding affinity, marmoset A2A
[2] = system: 57 counter-screen targets (receptors, ion channels and transporters); test: Counter-screen binding panel of CNS targets
MPTP-lesion marmosets = test: Disability reversal score in MPTP-lesion marmosets, PK/PD modelling; assay type: in vivo, marmoset; details: MPTP-treated marmosets, 0.1-3 mg/kg, Emax PK/PD modelling
Method: Marmosets received several MPTP regimens (single MPTP regimen: 2 mg/kg, s.c., per day for 3 consecutive days) before the marmosets were used for PK/PD measurements.
In the absence of any striatal occupancy data in marmoset to relate plasma concentration needed for EC80 A2A occupancy for human dose projection, a daily dose range of 3-24 mg was established based on predicted EC50-80 plasma concentrations of rat striatal occupancy and marmoset disability reversal score.

[3] = Safety and tolerability study, single-dose pharmacokinetics (Parts A, B, C); assay type: in vivo, human; details: for intra-subject variability (CV %) for AUC0-inf / intra-subject variability (CV %) for Cmax: across the fasting doses; for half-life / Vd/F / Tmax / AUC(0-inf) / Cmax / AUC(0-t): human, oral; for Vd/F: read-out: Vz/F
Method: The study was conducted in three parts: Parts A, B, and C.
Parts A and B were single-dose escalations to determine the safety and tolerability in young healthy men, and in elderly men and women, respectively. Three doses (Cohorts A1 to A3) were tested in healthy young men: 1 mg (N=6), 5 mg (N=6), and 10 mg (N=5); placebo (N=8, total of the three cohorts). […] Two doses (Cohorts B1 and B2) were tested in healthy elderly men and women: 5 mg (N=9 men/4 women), 10 mg (N=4 men/4 women); placebo (N=6 men/4 women, total of the three cohorts). […] A washout period of at least 7 days separated each dose administration.

A2A receptor [4] = molecular target: A2A receptor (Homo sapiens, UniProt P29274); test: PET study in humans of A2A receptor occupancy with [11C]-SCH442416; assay type: in vivo; details: for EC50: plasma concentration at PET scan, read-out: estimated EC50 of A2A receptor occupancy (converted)
Chain of A2A receptor (Homo sapiens, UniProt P29274) (P29274 whole entry): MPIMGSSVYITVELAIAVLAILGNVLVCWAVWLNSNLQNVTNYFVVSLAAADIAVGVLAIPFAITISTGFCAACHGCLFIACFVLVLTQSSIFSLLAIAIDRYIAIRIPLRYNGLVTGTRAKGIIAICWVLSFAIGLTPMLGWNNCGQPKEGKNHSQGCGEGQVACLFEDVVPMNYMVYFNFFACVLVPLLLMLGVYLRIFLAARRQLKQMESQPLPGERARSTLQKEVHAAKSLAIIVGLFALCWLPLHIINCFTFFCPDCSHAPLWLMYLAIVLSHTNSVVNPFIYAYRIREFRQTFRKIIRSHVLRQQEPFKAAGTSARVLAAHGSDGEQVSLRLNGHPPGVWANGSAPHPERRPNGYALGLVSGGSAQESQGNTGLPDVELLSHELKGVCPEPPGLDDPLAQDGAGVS
Method: There were 3 cohorts in the study, each including 2 subjects.
In the Screening period (Days −28 to −4) safety screening procedures were performed and subject eligibility was confirmed following a magnetic resonance imaging (MRI) scan (Days −21 to −2). Eligible subjects were admitted to the clinic on Day −1. […] The subjects received the PET tracer [11C]-SCH442416 immediately prior to each PET scan.
The PET tracer, [11C]-SCH442416 was provided as a radiopharmaceutical in an 11 mL sterile and pyrogen free type 1 glass vial as a solution for intravenous administration. The [11C]-SCH442416 solution consisted of up to 10% ethanol and 90% saline and was administered as an intravenous bolus in approximately […] of the saline/ethanol solution over approximately 20 seconds. Each subject received a maximum of 500 MBq of [11C]-SCH442416 for each PET scan.
PET data were analysed using the simplified reference tissue method (SRTM). […] The SRTM implementation employed directly estimated the binding potential relative to the non-displaceable component (BPND), which can be thought of as a measure of specific binding.
Receptor occupancy (RO) in a region of interest (ROI) can then be calculated directly as: RO=100×(1−BPND(post-dose)/BPND(baseline))
Binding potential and estimated RO were listed and presented graphically versus CPET.

A2A receptor [5] = molecular target: A2A receptor (Rattus norvegicus, UniProt P30543); test: Reversal of CGS21680-induced hypolocomotion; assay type: in vivo
Chain of A2A receptor (Rattus norvegicus, UniProt P30543) (P30543 whole entry): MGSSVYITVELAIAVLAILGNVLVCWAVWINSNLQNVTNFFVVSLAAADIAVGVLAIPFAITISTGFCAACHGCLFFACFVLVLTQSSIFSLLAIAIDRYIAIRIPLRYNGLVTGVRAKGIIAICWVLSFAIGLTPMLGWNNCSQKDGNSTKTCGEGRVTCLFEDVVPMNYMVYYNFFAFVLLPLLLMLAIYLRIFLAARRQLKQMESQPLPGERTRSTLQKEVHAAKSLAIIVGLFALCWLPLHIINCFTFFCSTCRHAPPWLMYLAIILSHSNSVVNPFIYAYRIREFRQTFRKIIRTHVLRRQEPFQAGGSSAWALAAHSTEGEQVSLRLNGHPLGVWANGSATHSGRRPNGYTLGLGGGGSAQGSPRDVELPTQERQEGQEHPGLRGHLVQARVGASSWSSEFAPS
Method: Doses of 0.01, 0.03, 0.06, 0.1 mg/kg were tested in a dosage form of 0.5 w/v % methyl cellulose 400 (viscosity: 400 cP) in distilled water. Drug was administered at a volume of 5 ml/kg, oral.
Sixty (60) male Long Evans rats, 3 months age, were allocated into 6 groups of N=10 rats per group.
The activity test, monitoring the rat's spontaneous activity was measured in the automated
Med Associates activity test chamber for 20 minutes. The tracking arena was of dimension 17′W×17″L×12″H, sensor bars were secured 1″ above the floor to track distance travelled, and a second set of sensor bars were placed 6″ above the floor to measure vertical movement and rearing activity. The parameters set on the tracking software were: resolution—50 ms, box size—4 beams, resting delay—500 ms, and ambulatory trigger—2.

[6] = both sexes, plasma, 5 mg, Part B, healthy elderly overall, arithmetic mean
[7] = both sexes, plasma, 5 mg, Part C, elderly men and women, Fasting (N = 24)
[8] = both sexes, plasma, 5 mg, Part C, elderly men and women, Fed (N = 12)
[9] = both sexes, plasma, 10 mg, Part B, healthy elderly overall, arithmetic mean
[10] = female, plasma, 5 mg, Part B, healthy elderly women, arithmetic mean
[11] = female, plasma, 10 mg, Part B, healthy elderly women, arithmetic mean
[12] = male, plasma, 1 mg, Part A, healthy young men, 1 mg single dose, mean (CV %)
[13] = male, plasma, 5 mg, Part A, healthy young men, 5 mg single dose, mean (CV %)
[14] = male, plasma, 5 mg, Part B, healthy elderly men, arithmetic mean
[15] = male, plasma, 10 mg, Part A, healthy young men, 10 mg single dose, mean (CV %)
[16] = male, plasma, 10 mg, Part B, healthy elderly men, arithmetic mean

Chain of A2A receptor (Callithrix jacchus, UniProt A0A8I3X4X6) (A0A8I3X4X6 1-410): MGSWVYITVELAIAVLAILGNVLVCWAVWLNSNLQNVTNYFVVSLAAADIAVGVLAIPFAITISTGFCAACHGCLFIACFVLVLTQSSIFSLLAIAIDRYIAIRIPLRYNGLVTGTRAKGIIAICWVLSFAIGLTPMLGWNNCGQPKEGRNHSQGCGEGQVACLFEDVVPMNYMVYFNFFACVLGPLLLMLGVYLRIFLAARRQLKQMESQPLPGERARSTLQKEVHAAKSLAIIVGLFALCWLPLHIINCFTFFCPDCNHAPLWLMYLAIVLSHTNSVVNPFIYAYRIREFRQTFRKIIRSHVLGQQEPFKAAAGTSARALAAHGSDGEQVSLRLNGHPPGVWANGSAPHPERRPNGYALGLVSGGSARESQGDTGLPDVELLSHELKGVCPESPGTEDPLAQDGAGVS

Structure (SMILES): Cc1ccc(C(=O)Nc2nc(-c3ccco3)c(C(=O)C3CCOCC3)s2)cn1 [Compound 504]
- Ki (A2A receptor [1]): 0.113 ± 0.0046 nM
- affinity for other receptors, ion channels and transporters ([2]; DA, 5-HT, Ach, GABA, Glu, opiates, cannabinoid, calcium, potassium channels, transporters): Little or no affinity
- inhibition of binding ([2]; at 10 μM, any of the 57 counter-screen targets): Less than 50%
- EC80 plasma concentration for disability reversal score (MPTP-lesion marmosets): 0.175 µg/mL
- differences in exposure between men and women ([3]; Part B): no marked differences
- CL/F ([3]; Part B, healthy elderly men, 5 mg, arithmetic mean): 0.611 L/h
- CL/F ([3]; Part B, healthy elderly men, 10 mg, arithmetic mean): 0.908 L/h
- CL/F ([3]; Part B, healthy elderly overall, 5 mg, arithmetic mean): 0.597 L/h
- CL/F ([3]; Part B, healthy elderly overall, 10 mg, arithmetic mean): 0.844 L/h
- CL/F ([3]; Part B, healthy elderly women, 5 mg, arithmetic mean): 0.556 L/h
- CL/F ([3]; Part B, healthy elderly women, 10 mg, arithmetic mean): 0.780 L/h
- mean Cmax lower in the fed state than in the fasting state ([3]; Part C, 5 mg): approximately 23%
- overall exposure (AUC0-inf and AUC0-t) fed compared to fasting ([3]; Part C, 5 mg): not statistically significantly different
- intra-subject variability (CV %) for AUC0-inf ([3]; Part C, men): 27%
- intra-subject variability (CV %) for Cmax ([3]; Part C, men): 16%
- intra-subject variability (CV %) for AUC0-inf ([3]; Part C, women): 59%
- intra-subject variability (CV %) for Cmax ([3]; Part C, women): 23%
- time until which plasma concentration plateaued after Cmax ([3]; Parts A and B, post-dose): approximately 5 hours
- half-life ([3]; both sexes, in vivo, Parts A and B, 1 to 10 mg, read-out: mean half-life (t1/2) across dose levels): 19 to 25 h
- Vd/F ([3]; both sexes, plasma, 5 mg, Part B, healthy elderly overall, 5 mg, arithmetic mean): 16.9 L
- half-life ([3]; both sexes, plasma, 5 mg, Part B, healthy elderly overall, 5 mg, arithmetic mean, read-out: t1/2 (converted)): 22 h
- Tmax ([3]; both sexes, plasma, 5 mg, Part B, healthy elderly overall, 5 mg, median, read-out: tmax): 1 h
- AUC(0-inf) [3, 6]: 9580 ng·h/mL
- Cmax [3, 6]: 388 ng/mL
- Tmax ([3]; both sexes, plasma, 5 mg, Part C, 5 mg, read-out: delay of median tmax in the fed state): 2 to 3 h
- half-life ([3]; both sexes, plasma, 5 mg, Part C, elderly men and women, 5 mg, Fasting (N = 24), read-out: t1/2 (converted)): 14.9 h
- half-life ([3]; both sexes, plasma, 5 mg, Part C, elderly men and women, 5 mg, Fed (N = 11), read-out: t1/2 (converted)): 15.8 h
- AUC(0-inf) [3, 7]: 6310 ng·h/mL
- AUC(0-t) [3, 7]: 5960 ng·h/mL
- Cmax [3, 7]: 348 ng/mL
- AUC(0-inf) ([3]; both sexes, plasma, 5 mg, Part C, elderly men and women, Fed (N = 11)): 5960 ng·h/mL
- AUC(0-t) [3, 8]: 5560 ng·h/mL
- Cmax [3, 8]: 269 ng/mL
- Vd/F ([3]; both sexes, plasma, 10 mg, Part B, healthy elderly overall, 10 mg, arithmetic mean): 20.6 L
- half-life ([3]; both sexes, plasma, 10 mg, Part B, healthy elderly overall, 10 mg, arithmetic mean, read-out: t1/2 (converted)): 20.2 h
- Tmax ([3]; both sexes, plasma, 10 mg, Part B, healthy elderly overall, 10 mg, median, read-out: tmax): 0.75 h
- AUC(0-inf) [3, 9]: 14900 ng·h/mL
- Cmax [3, 9]: 717 ng/mL
- Tmax ([3]; both sexes, plasma, Parts A and B, each dose, post-dose, read-out: median tmax): 0.75 to 1.75 h
- increase of exposure (AUC0-24 and Cmax) with dose ([3]; dose range 1 to 10 mg): approximate dose-proportional manner
- Vd/F ([3]; female, plasma, 5 mg, Part B, healthy elderly women, 5 mg, arithmetic mean): 13.6 L
- half-life ([3]; female, plasma, 5 mg, Part B, healthy elderly women, 5 mg, arithmetic mean, read-out: t1/2 (converted)): 17.4 h
- Tmax ([3]; female, plasma, 5 mg, Part B, healthy elderly women, 5 mg, median, read-out: tmax): 1 h
- AUC(0-inf) [3, 10]: 9550 ng·h/mL
- Cmax [3, 10]: 485 ng/mL
- Vd/F ([3]; female, plasma, 10 mg, Part B, healthy elderly women, 10 mg, arithmetic mean): 19.6 L
- half-life ([3]; female, plasma, 10 mg, Part B, healthy elderly women, 10 mg, arithmetic mean, read-out: t1/2 (converted)): 18.8 h
- Tmax ([3]; female, plasma, 10 mg, Part B, healthy elderly women, 10 mg, median, read-out: tmax): 0.75 h
- AUC(0-inf) [3, 11]: 14100 ng·h/mL
- Cmax [3, 11]: 781 ng/mL
- differences in pharmacokinetic profile between healthy young and elderly subjects ([3]; in vivo): no apparent differences
- AUC(0-inf) [3, 12]: 2660 ng·h/mL
- Cmax [3, 12]: 82.7 ng/mL
- Vd/F [3, 12]: 13.4 L
- half-life ([3]; male, plasma, 1 mg, Part A, healthy young men, 1 mg single dose, mean (CV %), read-out: t1/2 (converted)): 24.3 h
- Tmax ([3]; male, plasma, 1 mg, Part A, healthy young men, 1 mg single dose, median (min, max), read-out: tmax): 1.25 h
- AUC(0-inf) [3, 13]: 12600 ng·h/mL
- Cmax [3, 13]: 423 ng/mL
- Vd/F [3, 13]: 14.8 L
- half-life ([3]; male, plasma, 5 mg, Part A, healthy young men, 5 mg single dose, mean (CV %), read-out: t1/2 (converted)): 25 h
- Tmax ([3]; male, plasma, 5 mg, Part A, healthy young men, 5 mg single dose, median (min, max), read-out: tmax): 1.75 h
- Vd/F ([3]; male, plasma, 5 mg, Part B, healthy elderly men, 5 mg, arithmetic mean): 18 L
- half-life ([3]; male, plasma, 5 mg, Part B, healthy elderly men, 5 mg, arithmetic mean, read-out: t1/2 (converted)): 23.5 h
- Tmax ([3]; male, plasma, 5 mg, Part B, healthy elderly men, 5 mg, median, read-out: tmax): 1 h
- AUC(0-inf) [3, 14]: 9590 ng·h/mL
- Cmax [3, 14]: 356 ng/mL
- AUC(0-inf) [3, 15]: 18100 ng·h/mL
- Cmax [3, 15]: 787 ng/mL
- Vd/F [3, 15]: 15.3 L
- half-life ([3]; male, plasma, 10 mg, Part A, healthy young men, 10 mg single dose, mean (CV %), read-out: t1/2 (converted)): 19.3 h
- Tmax ([3]; male, plasma, 10 mg, Part A, healthy young men, 10 mg single dose, median (min, max), read-out: tmax): 1 h
- Vd/F ([3]; male, plasma, 10 mg, Part B, healthy elderly men, 10 mg, arithmetic mean): 21.6 L
- half-life ([3]; male, plasma, 10 mg, Part B, healthy elderly men, 10 mg, arithmetic mean, read-out: t1/2 (converted)): 21.6 h
- Tmax ([3]; male, plasma, 10 mg, Part B, healthy elderly men, 10 mg, median, read-out: tmax): 0.75 h
- AUC(0-inf) [3, 16]: 15700 ng·h/mL
- Cmax [3, 16]: 652 ng/mL
- estimated Emax of A2A receptor occupancy (A2A receptor [4]; globus pallidus, Emax model vs CPET): 101%
- EC50 (A2A receptor [4]; globus pallidus): 173 nM
- EC50 (A2A receptor [4]; putamen): 78 nM
- dosage sufficient to reach an occupancy of 80% (A2A receptor [4]; single oral dose, healthy young men): ≤ 3 mg
- reversal of CGS-induced hypolocomotion (A2A receptor [5]; 0.1 mg/kg oral): completely reversed
- reversal of CGS-hypolocomotion (distance travelled, rearing, ambulatory episodes) (A2A receptor [5]; 0.06 and 0.1 mg/kg doses): significantly reversed
- ED50 (A2A receptor [5]; rat, po, read-out: ED50 for antagonism of the CGS-hypolocomotion): ~0.06 mg/kg
